The values below come from US20060148030A1, “Nuclear receptor err y 3” (FUJISAWA PHARMACEUTICAL CO., LTD, priority 2002, published 2006).

What all share (assay type): cell-based
In one assay the target is T1, GR (Homo sapiens, UniProt P04150).
T1 construct: expressed in transfected cells; host or cells: CV-1 (African green monkey kidney)
T1 sequence (P04150 1-777): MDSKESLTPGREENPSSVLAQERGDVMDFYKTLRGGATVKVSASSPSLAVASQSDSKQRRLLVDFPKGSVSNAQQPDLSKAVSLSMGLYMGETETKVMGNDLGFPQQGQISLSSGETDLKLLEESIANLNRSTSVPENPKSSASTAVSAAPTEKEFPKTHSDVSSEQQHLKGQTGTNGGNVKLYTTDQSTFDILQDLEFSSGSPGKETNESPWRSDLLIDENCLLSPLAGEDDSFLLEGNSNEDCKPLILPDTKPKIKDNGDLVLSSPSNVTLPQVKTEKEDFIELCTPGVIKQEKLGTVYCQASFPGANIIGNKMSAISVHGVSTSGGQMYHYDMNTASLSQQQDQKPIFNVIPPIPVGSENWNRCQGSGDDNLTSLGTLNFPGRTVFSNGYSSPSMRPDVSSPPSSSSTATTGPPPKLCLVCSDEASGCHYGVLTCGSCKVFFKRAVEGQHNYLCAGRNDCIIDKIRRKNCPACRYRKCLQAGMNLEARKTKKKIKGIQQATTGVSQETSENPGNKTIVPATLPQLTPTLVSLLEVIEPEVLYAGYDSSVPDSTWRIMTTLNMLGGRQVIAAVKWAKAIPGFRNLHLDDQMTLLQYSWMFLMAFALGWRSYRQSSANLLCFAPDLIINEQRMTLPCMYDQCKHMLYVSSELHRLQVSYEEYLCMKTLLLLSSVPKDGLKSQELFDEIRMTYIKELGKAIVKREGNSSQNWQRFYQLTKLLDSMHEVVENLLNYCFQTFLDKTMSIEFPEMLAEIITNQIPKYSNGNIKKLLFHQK
Description: Reporter gene assay, ERRγ3 coexisted with GR, pGRE-luc in CV-1 cells. The following applies: 10^−5 M dexamethasone. The procedure:
Transfection was performed as follows: CV-1 cells were resuspended in DMEM supplemented with 10% fetal bovine serum, 2000 U/l of penicillin G, and 100 mg/l of streptomycin to a concentration of 2×10^5 cells/2.5 ml. This was then seeded to a 6-well plate at 2.5 ml per well, and incubated for 18-24 hours in a CO2 incubator at 37° C. and 5% CO2. 1 μg of each of the expression plasmids for the transcription factors, the luciferase reporter plasmid, and another luciferase reporter plasmid used for normalization of the measured values (pRL-TK), were dissolved in Opti-MEM (Gibco BRL), to a total of 150 μl. 7 μl of the transfection reagent LipofectAMINE 2000 (Gibco BRL) was diluted in 143 μl of Opti-MEM, and this was added to the mixture drop by drop while stirring. The mixture was incubated for 20 minutes. […] Luciferase activity was measured using the Dual-Luciferase™ Reporter Assay System (Promega). […] The protocol for measurement was as follows: 50 μl of Luciferase Assay Reagent II was added to each well, stirred for 0.3 seconds, and measured for one second. 50 μl of Stop&Glo™ Reagent was then added, stirred for 0.3 seconds, and measured for one second. The measured values for firefly luciferase activity were corrected by dividing by the value for the Renilla luciferase activity, the internal control. Average values and standard errors were calculated from triplicate samples. […]
Background: Reporter assays use an easily measured gene product as a stand-in for the process of interest.

For another assay, the target named is T2, ERβ (Homo sapiens, UniProt Q92731).
T2 construct: expressed in transfected cells; host or cells: CV-1 (African green monkey kidney)
T2 sequence (Q92731 whole entry): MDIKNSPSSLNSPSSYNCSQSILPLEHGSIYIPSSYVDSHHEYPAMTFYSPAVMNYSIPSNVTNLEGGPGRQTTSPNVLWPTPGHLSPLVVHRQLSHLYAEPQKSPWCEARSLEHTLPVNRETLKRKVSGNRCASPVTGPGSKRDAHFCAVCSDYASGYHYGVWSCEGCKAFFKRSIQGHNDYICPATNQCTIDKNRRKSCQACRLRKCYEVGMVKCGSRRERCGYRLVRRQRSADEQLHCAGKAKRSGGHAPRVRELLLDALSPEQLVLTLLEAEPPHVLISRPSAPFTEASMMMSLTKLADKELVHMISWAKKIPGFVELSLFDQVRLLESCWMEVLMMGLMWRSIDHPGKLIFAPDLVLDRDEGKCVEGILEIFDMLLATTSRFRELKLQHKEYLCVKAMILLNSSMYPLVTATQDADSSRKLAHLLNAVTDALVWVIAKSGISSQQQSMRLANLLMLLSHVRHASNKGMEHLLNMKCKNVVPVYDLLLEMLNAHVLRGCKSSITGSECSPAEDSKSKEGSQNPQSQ
Briefly: Reporter gene assay, ERRγ3 coexisted with ERβ in CV-1 cells.

The target in another assay is T3, TR (Homo sapiens, UniProt P10827).
T3 construct: expressed in transfected cells; host or cells: CV-1 (African green monkey kidney)
T3 sequence (P10827 1-410 isoform P10827-2): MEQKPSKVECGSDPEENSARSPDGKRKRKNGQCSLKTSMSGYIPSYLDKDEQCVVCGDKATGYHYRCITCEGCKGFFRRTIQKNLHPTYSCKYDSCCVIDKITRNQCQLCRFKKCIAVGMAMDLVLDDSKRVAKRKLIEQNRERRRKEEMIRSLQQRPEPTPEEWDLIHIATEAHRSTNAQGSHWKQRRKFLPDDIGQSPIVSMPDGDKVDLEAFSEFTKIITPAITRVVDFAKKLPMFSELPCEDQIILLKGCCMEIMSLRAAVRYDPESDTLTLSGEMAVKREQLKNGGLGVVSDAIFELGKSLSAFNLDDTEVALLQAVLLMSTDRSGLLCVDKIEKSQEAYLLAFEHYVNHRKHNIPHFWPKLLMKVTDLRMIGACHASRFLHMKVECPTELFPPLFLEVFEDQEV
Description: Reporter gene assay, ERRγ3 coexisted with TR in CV-1 cells.

Consider 4-hydroxytamoxifen [reference compound], for which the “effect of 4-hydroxytamoxifen on the inhibitory function of ERRγ3 on GR” value on GR (10^−5 M 4-hydroxytamoxifen, FIG. 25B) is given as “reduced ERRγ3's inhibitory function”. Moreover, the “effect of 4-hydroxytamoxifen on the enhancing function of ERRγ3 on ERβ” value on ERβ (10^−5 M (R)-estradiol present) is recorded as “no function-enhancing effect”. Also, the “effect of 4-hydroxytamoxifen on the enhancing function of ERRγ3 on TR” value on TR (10^−5 M thyroxine present) is on record as “no function-enhancing effect”.

B1: ERRγ3: novel ERRγ isoform, nuclear receptor protein of 396 amino acids (SEQ ID NO: 2) lacking part of the DNA binding domain (protein, listed as Homo sapiens)
chain: MSNKDRHIDSSCSSFIKTEPSSPASLTDSVNHHSPGGSSDASGSYSSTMNGHQNGLDSPPLYPSAPILGGSGPVRKLYDDCSSTIVEDPQTKCEYMLNSMPKRLCLVCGDIASGYHYGVASCEACKAFFKRTIQGVRLDRVRGGRQKYKRRIDAENSPYLNPQLAQPAKKPYNKIVSHLLVAEPEKIYAMPDPTVPDSDIKALTTLCDLADRELVVIIGWAKHIPGFSTLSLADQMSLLQSAWMEILILGVVYRSLSFEDELVYADDYIMDEDQSKLAGLLDLNNAILQLVKKYKSMKLEKEEFVTLKAIALANSDSMHIEDVEAVQKLQDVLHEALQDYEAGQHMEDPRRAGKMLMTLPLLRQTSTKAVQHFYNIKLEGKVPMHKLFLEMLEAKV
For the molecule B1, in the assay with GR (FIG. 25), the “effect of ERRγ3 on the transcriptional stimulation activity of GR” value is given as “inhibited GR's transcriptional stimulation activity”. In the assay with ERβ (ERRγ3 with ERβ, 10^−5 M (R)-estradiol, FIG. 17), the “function enhancement of the transcription-controlling activity of ERβ” value is on record as 600-650%. For the same molecule, in the assay with TR (ERRγ3 with TR, 10^−5 M thyroxine, FIG. 18), the “function enhancement of the transcription-controlling activity of TR” value is 128-229%.
